In US9260461B2, “Water-soluble derivatives and prodrugs of acacetin and methods of making and using thereof” (Versitech Limited, priority 2014, dated 2016):
≈ marks a conversion by molar mass, not a printed value.

Tests used:
[1] = Solubility of the purified prodrugs versus parent compound acacetin; assay type: physicochemical; conditions: aqueous buffer; Tris solution, pH=7.0; read-out: solubility in Tris solution
Excerpt: Prodrug B: Light yellow solid. Yield 54%. C16H11O7PNa2 (408.21). EI-MS: m/z 387.04 [M+H—Na]^+. ^1H NMR (400 MHz, DMSO-d6): δ=12.90 (s, 1H), 8.04 (d, J=8.8 Hz, 2H), 7.10 (d, J=8.8 Hz, 2H), 7.02 (s, 1H), 6.98 (s, 1H), 6.60 (s, 1H), 3.89 (s, 3H) ppm.

IKACh = target: T1, IKACh (Rattus norvegicus, UniProt P48548+P63251); assay: Whole-cell patch-clamp, IKACh activated by 5 μM carbachol in rat atrial myocytes; assay type: cell-based; conditions: 30 μM, representative cells
T1 construct: from tissue; host or cells: freshly isolated left atrial myocytes of SD rats
T1 sequence (P63251 1-501): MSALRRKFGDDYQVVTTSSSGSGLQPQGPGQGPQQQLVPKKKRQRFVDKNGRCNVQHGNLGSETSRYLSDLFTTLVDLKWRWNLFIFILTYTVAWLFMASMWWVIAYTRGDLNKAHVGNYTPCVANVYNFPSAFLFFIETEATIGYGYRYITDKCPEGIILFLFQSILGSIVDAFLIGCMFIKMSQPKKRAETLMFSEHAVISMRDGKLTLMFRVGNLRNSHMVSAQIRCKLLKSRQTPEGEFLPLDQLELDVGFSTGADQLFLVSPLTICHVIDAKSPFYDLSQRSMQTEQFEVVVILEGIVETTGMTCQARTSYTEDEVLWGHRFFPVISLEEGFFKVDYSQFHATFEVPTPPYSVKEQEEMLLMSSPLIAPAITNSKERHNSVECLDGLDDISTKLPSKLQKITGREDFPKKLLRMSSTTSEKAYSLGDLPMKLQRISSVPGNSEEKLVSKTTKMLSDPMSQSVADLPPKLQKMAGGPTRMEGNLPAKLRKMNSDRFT
T1 sequence (P48548 1-419): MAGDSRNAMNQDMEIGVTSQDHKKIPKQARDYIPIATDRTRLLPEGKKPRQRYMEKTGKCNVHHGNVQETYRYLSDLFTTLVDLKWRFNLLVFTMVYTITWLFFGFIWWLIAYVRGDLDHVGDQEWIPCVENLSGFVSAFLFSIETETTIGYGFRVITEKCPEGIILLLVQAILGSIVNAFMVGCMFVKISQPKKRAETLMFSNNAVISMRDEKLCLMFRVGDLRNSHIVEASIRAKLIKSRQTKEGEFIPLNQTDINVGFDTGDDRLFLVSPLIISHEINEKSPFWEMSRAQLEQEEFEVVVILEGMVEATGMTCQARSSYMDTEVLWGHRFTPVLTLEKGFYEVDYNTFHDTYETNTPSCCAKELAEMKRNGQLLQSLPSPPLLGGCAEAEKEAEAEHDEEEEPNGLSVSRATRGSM
Method: Rat atrial myocytes were prepared with the procedure described previously (Li et al., 2002) with a slight modification. Briefly, After SD rats (250-300 g) were anesthetized with pentobarbital (30 mg/kg i.p.), the heart was mounted to a Langendorff heart perfusion apparatus via the aorta and perfused with HEPES-buffered Tyrode's solution at 37° C. gassed with 100% 02 for 5 min. The heart was perfused with Ca^2+-free Tyrode's solution for 5-8 min, followed by Ca^2+-free Tyrode's solution containing 0.06% collagenase (Type II, Worthington Biochemical, Lakewood, N.J., USA) and 0.1% bovine serum albumin (Sigma). When the heart became softened the left atrium was excised and placed in a high-K storage medium at room temperature for 2 h, and then used for electrophysiological recording (Li et al., 2002).
Ionic currents in HEK 293 cell lines and rat atrial myocytes were measured by the standard whole-cell patch-clamp technique using a standard pipette and bath solution with an EPC-10 amplifier and Pulse software (HEKA, Lambrecht, Germany). A 3M KCl-agar salt bridge was used as the reference electrode. The current signal was sampled at 5 kHz, recorded and stored in the hard disk of an IBM compatible computer. All experiments were conducted at room temperature (22-23° C.). […]

[2] = tested on: myocardial infarction induced by ischemia-reperfusion; assay: Ventricular infarct area (TTC staining) in anesthetized rats with ischemia-reperfusion; assay type: in vivo; conditions: 10 mg/kg i.v.; n=4, P<0.01 vs vehicle
[3] = tested on: ventricular arrhythmias induced by ischemia-reperfusion injury; assay: Ischemia-reperfusion model in anesthetized rats (ventricular arrhythmias, heart rate, left ventricular contractile function); assay type: in vivo, Sprague-Dawley (SD) rats; conditions: for incidence of severe ventricular fibrillation: 90% in vehicle, P<0.05
Method: Adult male Sprague-Dawley (SD) rats (250-300 g) were anesthetized with pentobarbital (30 mg/kg i.p.), supplemented during the experiment when needed. The animal was intubated and ventilated. Body temperature was maintained at 37° C. with a temperature control system. The jugular vein was cannulated for drug administration and a plastic tubing (0.8 mm OD) was introduced into the left ventricle through the […] to measure the contractile function (e.g. left ventricular pressure). The left chest was opened under ventilation to expose the coronary artery. A fine silk was introduced at the upper ⅓ left anterior coronary descending artery (LA). After a 10-min stabilization period, the drug at 5, 10, or 20 mg/kg was intravenously administrated respectively in 5 min, and an equal volume (1 mL/kg) of vehicle was administrated for the control. LAD was then ligated for 10 min followed a 30-min reperfusion. ECG and blood pressure signals were continuously monitored and stored on an IBM compatible PC computer using a multiple channels data acquisition system (RM-6280C, Chengdu Instrument Ltd, Chendu, China) to record the incidence of ventricular arrhythmia (i.e. fibrillation, tachycardia, and premature beats) and […].
To investigate the effects of water-soluble Prodrug A on ventricular arrhythmias induced by ischemia-reperfusion injury, the in vivo ischemia-reperfusion model was established in SD rats. In this model, the animal, ventricular arrhythmias, including premature ventricular beats (PVBs), and ventricular tachycardia (VT), were developed with 10 min ischemia (ligation of coronary anterior descending artery) followed by […]. Ventricular fibrillation was frequently observed during the early reperfusion in the control animal with intravenous vehicle (FIG. 1A), but not in the animal treated with intravenous Prodrug A (10 mg/kg for 5 min, FIG. 1B). Prodrug A at 5 mg, 10, and 20 mg/kg decreased arrhythmia score (FIG. 1C) and arrhythmia duration in a dose-dependent manner (P<0.05 or P<0.01 vs. vehicle).
In addition to the anti-ventricular fibrillation, Prodrug A prevented heart rate reduction (FIG. 2A), and improved the decreased function contractile function including left ventricular systolic pressure (FIG. 2B), development pressure (FIG. 2C), and +dP/dT (FIG. 2D) induced by ischemia and/or reperfusion injury in a dose-dependent manner (P<0.05 or P<0.01 vs. vehicle).

[4] = 10 mg and 20 mg/kg, before ligation
[5] = 5, 10 and 20 mg/kg i.v., dose-dependent, P<0.05 or P<0.01 vs. vehicle
[6] = i.v., dose-dependent, P<0.05 or P<0.01 vs. vehicle

COc1ccc(-c2cc(=O)c3c(O)cc(OP(=O)(O)O)cc3o2)cc1 [Prodrug A]
solubility [1]: 10000 µg/mL (≈ 27.5 mM) | effect on IKACh (IKACh): no inhibitory effect | ventricular infarct area [2]: reduced | heart rate before coronary artery ligation [3, 4]: without affecting | left ventricular development pressure before coronary artery ligation [3, 4]: slightly but significantly increased | left ventricular systolic pressure before coronary artery ligation [3, 4]: slightly but significantly increased | incidence of severe ventricular fibrillation ([3]; 10 mg/kg i.v.): 30% | incidence of severe ventricular fibrillation ([3]; 20 mg/kg i.v.): 20% | arrhythmia duration [3, 5]: decreased | arrhythmia score [3, 5]: decreased | decreased +dP/dT induced by ischemia and/or reperfusion injury [3, 6]: improved | decreased left ventricular development pressure induced by ischemia and/or reperfusion injury [3, 6]: improved | decreased left ventricular systolic pressure induced by ischemia and/or reperfusion injury [3, 6]: improved | heart rate reduction induced by ischemia and/or reperfusion injury [3, 6]: prevented
